# Test: method code SF-AS, from DOI: 10.1021/jm00146a003, PMID: 4020837
# Conditions: pH 7.4
row,logD,Structure (SMILES)
1,-1.4,O=C(Cn1cnc([N+](=O)[O-])c1I)NCc1ccc[n+]([O-])c1
2,1,Cn1cnc([N+](=O)[O-])c1I
3,0.41,COCC(O)Cn1cnc([N+](=O)[O-])c1I (centres undefined)
4,0.46,O=C(Cn1cnc([N+](=O)[O-])c1I)Nc1cccnc1
5,0.89,COCC(O)Cn1cnc(I)c1[N+](=O)[O-] (centres undefined)
6,0.93,CCOC(=O)Cn1cnc(I)c1[N+](=O)[O-]
7,1.29,Cn1cnc(I)c1[N+](=O)[O-]
8,0.57,CCOC(=O)Cn1cnc([N+](=O)[O-])c1I

row,Structure (SMILES),logD
1,O=[N+]([O-])c1nc[nH]c1I,0.28
